# “Also recorded” adds a separate entry of the source.
# Tests used:
# [1] = Acute toxicity of AP-28 in the rat; format: in vivo, rat (Wistar-Morini Strain); conditions: for Died/treated: in 24 hours; for Remarks: oral
# Method: AP-28 was administered to adult rats (Wistar-Morini Strain) of both sexes after fasting overnight. It was administered in an aqueous 1-percent suspension of tragacanth gum orally by gastric probe or intraperitoneally.
# [2] = Subacute toxicity, daily oral dosing for 6 consecutive days; format: in vivo, rat; conditions: 500 mg/kg daily for 6 consecutive days
# Method: Accordingly, 8 rats were given 500 mg/kg daily for 6 consecutive days.
# [3] = Enhancement of the hypnotic effect of sodium pentobarbital; format: in vivo, mouse
# Method: Forty mg/kg of sodium pentobarbital was injected intraperitoneally into mice and note was taken of animals losing the righting reflex and for how long. Other mice received a preliminary treatment with AP-28 at a dosage of 250 and 500 mg/kg, intraperitoneally, and thereafter sodium pentobarbital was given to them.
# [4] = Influence on amphetamine-induced hypermobility; format: in vivo, mouse; conditions: d-amphetamine sulfate 5 mg/kg i.p. + AP-28 250 mg/kg i.p. 15 minutes later
# Method: Six groups of 4 mice each were treated with 5 mg/kg d-amphetamine sulfate by intraperitoneal administration. Six groups of 4 animals each received the same dose of d-amphetamine sulfate plus 250 mg/kg of AP-28 intraperitoneally 15 minutes after d-amphetamine sulfate; six more groups of four animals each received saline solution and served as control animals. […] The number of times each animal crossed the light beam throughout the 10-minute test was noted.
# [5] = Avoidance reflex in conditioned mice; format: in vivo, mouse; conditions: control 53.3 ± 4.5 sec
# From the text: A conditioning cage was constructed of two chambers with free access between chambers. The floor of one compartment was electrified to make it possible to deliver a mild shock. Mice were conditioned by first giving a warning signal and then after a short period of time the shock was applied. Eventually the mice learned to leave the electrified compartment after the warning bell sounded and they were then judged to be conditioned. The average period of time, in this experiment, for control animals (4) to leave the compartment was 53.3 ± 4.5 sec. Four conditioned mice were administered AP-28 intraperitoneally with 250 mg/kg and their time was 60.6 ± 3.9 sec. Four more conditioned mice treated with 500 mg/kg of AP-28 required 77.5 ± 2.7 sec. to clear the compartment.
# [6] = Protective effect against strychnine (single injection); format: in vivo, mouse; conditions: 30 minutes before strychnine
# Method: This type of antagonism was evaluated in the mouse in three ways, namely: (1) protection from death from one hypodermic injection of strychnine: (2) evaluation of the LD50 of strychnine in mice both treated and untreated with AP-28, and (3) influence on the time required to cause animals to die by slow intravenous perfusion of strychnine. […] Groups of six mice were used. (2) increasing amounts of strychnine sulfate were injected hypodermically. In two experiments 200 or 400 mg/kg of intraperitoneal AP-28 were given 30 minutes prior to strychnine injection and the LD50 was calculated. The following results were obtained (95-percent confidence limits): […]
# [7] = Diuresis in water-loaded rats; format: in vivo, rat
# Method: (§1) The effect of a single 500 mg/kg oral dose of AP-28 was determined on (a) diuresis in water-loaded rats, (b) choleresis, (c) the excretion rate of intravenously-injected bromosulfonphthalein in bile, (d) arterial blood pressure.
# Choleresis = format: in vivo; conditions: single 500 mg/kg oral dose
# Method: as §1
# [8] = Excretion rate of intravenously-injected bromosulfonphthalein in bile; format: in vivo; conditions: single 500 mg/kg oral dose
# Method: as §1
# [9] = Clinical trial, 1st group: insomnia; format: in vivo, human; conditions: 400-600 mg one dose at night, 5 to 15 days; seven patients
# Method: (§2) Clinical trials were performed on three groups of patients, partly hospitalized patients and partly outpatients. It was determined that the effect observed in the experimental pharmacological studies were useful in the treatment of humans as well.
# Seven patients complaining of insomnia were treated for a period of time varying from 5 to 15 days. The daily dose was 400-600 mg given as one dose at night.
# [10] = Clinical trial, 3rd group: essential epilepsy; format: in vivo, human; conditions: 0.500 to 1.500 g daily, 10 to 30 days
# Method: as §2
# Four patients suffering from essential epilepsy were treated for periods of time varying between 10 and 30 days with daily doses ranging from 0.500 to 1.500 g. […] In the fourth patient it was possible to lower the anti-epileptic massive therapy they had been following for some time, and on which they were maintained throughout this study, by more than 50%.
# [11] = Clinical studies, overall; format: in vivo, human; conditions: humans
# Method: as §2
# [12] = Protective effect against electroshock (MES); conditions: AP-28 250 mg/kg i.p., 10 minutes before electroshock
# [13] = oral (gastric probe), 250 mg/kg
# [14] = oral (gastric probe), 500 mg/kg
# [15] = oral (gastric probe), 1000 mg/kg
# [16] = oral (gastric probe), 1500 mg/kg
# [17] = oral (gastric probe), 2000 mg/kg
# [18] = AP-28 250 + sodium pentobarbital 40 mg/kg i.p.
# [19] = AP-28 500 + sodium pentobarbital 40 mg/kg i.p.
structure (smiles),measurement,setting,value
"CCCCOC(=O)NC1CCOC1=O (stereo not drawn) [AP-28, α-n-butoxycarbonyl-amino-γ-butyrolactone]",loss of the righting reflex,[1]; highest oral dose,did not cause the loss of the righting reflex
same,Remarks: sedated for,"[1]; i.p., 250 mg/kg",about 15 minutes
same,Under hypnosis/treated (loss of the righting reflex),"[1]; i.p., 250 mg/kg",0/4
same,Died/treated,"[1]; i.p., 250 mg/kg",0/4
same,Remarks: sedated for,"[1]; i.p., 500 mg/kg",about 20 minutes
same,Under hypnosis/treated (loss of the righting reflex),"[1]; i.p., 500 mg/kg",0/4
same,Died/treated,"[1]; i.p., 500 mg/kg",0/4
same,loss of the righting reflex,"[1]; i.p., 1 g/kg",the loss of the righting reflex occurred
same,Remarks: under hypnosis for,"[1]; i.p., 1000 mg/kg",about 15 minutes
same,Under hypnosis/treated (loss of the righting reflex),"[1]; i.p., 1000 mg/kg",4/4
same,Died/treated,"[1]; i.p., 1000 mg/kg",0/4
same,Remarks: under hypnosis for,"[1]; i.p., 1500 mg/kg",about 30 minutes
same,Under hypnosis/treated (loss of the righting reflex),"[1]; i.p., 1500 mg/kg",4/4
same,Died/treated,"[1]; i.p., 1500 mg/kg",0/4
same,Remarks: under hypnosis for,"[1]; i.p., 2000 mg/kg",about 60 minutes
same,Under hypnosis/treated (loss of the righting reflex),"[1]; i.p., 2000 mg/kg",4/4
same,Died/treated,"[1]; i.p., 2000 mg/kg",0/4
same,toxicity,"[1]; laboratory animals, summary statement",toxicity is nearly negligible
same,Under hypnosis/treated (loss of the righting reflex),[1]; [13],0/4
same,Died/treated,[1]; [13],0/4
same,Under hypnosis/treated (loss of the righting reflex),[1]; [14],0/4
same,Died/treated,[1]; [14],0/4
same,Under hypnosis/treated (loss of the righting reflex),[1]; [15],0/4
same,Died/treated,[1]; [15],0/4
same,Under hypnosis/treated (loss of the righting reflex),[1]; [16],0/4
same,Died/treated,[1]; [16],0/4
same,Under hypnosis/treated (loss of the righting reflex),[1]; [17],0/4
same,Died/treated,[1]; [17],0/4
same,Remarks,[1]; 250 mg/kg,No particular effect
same,Remarks,[1]; 500 mg/kg,did not cause any particular effect
same,Remarks,[1]; 1000 mg/kg,Slightly sedated; also recorded: a mild sedative effect
same,Remarks,[1]; 1500 mg/kg,Sedated
same,Remarks,"[1]; 2000 mg/kg (highest oral dose), 2000 mg/kg",produced a sedative effect; also recorded: Very sedated
same,duration of sedative and hypnotic effects,[1]; rat,not long lasting and the animal returned to normal
same,LD0,"[1]; rat, oral or intraperitoneal",more than 2 g/kg
same,sedative effect or other abnormal symptoms,[2],No sedative effect or other abnormal symptoms were observed
same,tendency to accumulate in the organism,[2],no tendency for AP-28 to accumulate in the organism
same,Animals under hypnosis/treated,[3]; [18],4/4
same,Duration of hypnosis in minutes (m ± SE),[3]; [18],52.5 ± 13 min
same,Animals under hypnosis/treated,[3]; [19],4/4
same,Duration of hypnosis in minutes (m ± SE),[3]; [19],75.2 ± 21.6 min
same,Mean number of crossings (± SE) in 10 minutes,[4],836 ± 100
same,time to leave the electrified compartment,[5]; 250 mg/kg i.p.,60.6 ± 3.9 s
same,time to leave the electrified compartment,[5]; 500 mg/kg i.p.,77.5 ± 2.7 s
same,Animals with convulsions/treated,[6]; 250 mg/kg i.p.,7/7
same,Died/treated,[6]; 250 mg/kg i.p.,1/7
same,Time of death,"[6]; 250 mg/kg i.p., extreme values",33 min
same,Animals with convulsions/treated,[6]; 500 mg/kg i.p.,3/8
same,Died/treated,[6]; 500 mg/kg i.p.,0/8
same,Animals with convulsions/treated,[6]; 500 mg/kg os,5/9
same,Died/treated,[6]; 500 mg/kg os,0/9
same,rate of urine excretion,[7]; 500 mg/kg oral daily for 5 subsequent days,the rate of urine excretion was slowed
same,diuresis,[7]; single 500 mg/kg oral dose,No treatment caused any significant change
same,choleresis,Choleresis,No treatment caused any significant change
same,excretion rate of bromosulfonphthalein in bile,[8],No treatment caused any significant change
same,effects on awakening (blunting or grogginess),[9],no blunting or grogginess of their minds when they woke up; also recorded: no apparent effects on awakening
same,"lowering of anti-epileptic massive therapy, fourth patient",[10],more than 50%
same,adverse effects,[11],No adverse effects were observed
same,Number animals died,[12],0/8
same,Number animals with clonic convulsions,[12]; in parentheses number treated,8(8)
same,Number animals with tonic convulsions,[12]; in parentheses number treated,0(8)

# From patent US3968233A, “α-Amino-γ-butyrolactones as sedatives” (priority 1975, dated 1976)
